Test results: patent US12187679B2, “Hydroxylated psilocybin derivatives and methods of using” (Enveric Biosciences Canada Inc., priority 2020, dated 2025)

Tests used:
5-HT2A receptor = 5-HT2A receptor (Homo sapiens, UniProt P28223); test: Fluo-8 calcium release assay, serotonin with and without compound (positive allosteric modulation), +5-HT2A cells; format: cell-based; settings: serotonin 3 uM with compound 3 uM, FIG. 8C
Description: (§1) Cell lines for pharmacology assays. CHO-K1/Galpha15 (GenScript, M00257) (−5-HT2A) and CHO-K1/5-HT2A (GenScript, M00250) (+5-HT2A) cells lines were used in both toxicology/growth inhibition (MTT) and calcium release assays. Briefly, CHO-K1/Galpha15 is a control cell line that constitutively expresses Galpha15 which is a promiscuous Gq protein. It is engineered as a host cell, allowing transfected receptor(s) to signal through the Gq signal transduction pathway and mobilize intracellular calcium from the endoplasmic reticulum (ER). These control cells lack any transgene encoding 5-HT2A receptors, thus preventing calcium mobilization in response to 5-HT2A activation. Conversely, CHO-K1/5-HT2A cells stably express 5-HT2A receptor in the CHO-K1 host background. […]
(§2) Increase in cytosolic calcium concentration by 5-HT2A activation and assessment of modulation. Changes in intracellular calcium concentration due to the treatment with assay compounds was measured using Fluo-8 dye (Abcam, #ab112129) according to the manufacturer's instructions. […] Fluorescence (ex 490 nm/em 525 nm) obtained after the addition of molecules was expressed relative to values obtained before addition of the molecules (relative Fluo-8 fluorescence=Fmax/F0, where Fmax=maximum fluorescence and F0=baseline fluorescence). Fluorescence intensities were measured using a Spectramax ID3 plate reader (www.moleculardevices.com). […]

[1] = system: CHO-K1/Galpha15 cells lacking 5-HT2A; test: Fluo-8 calcium release control assay in -5-HT2A cells; format: cell-based, Chinese Hamster; settings: FIG. 8D panel A
Description: as §1, §2

Chain of 5-HT2A receptor (P28223 whole entry): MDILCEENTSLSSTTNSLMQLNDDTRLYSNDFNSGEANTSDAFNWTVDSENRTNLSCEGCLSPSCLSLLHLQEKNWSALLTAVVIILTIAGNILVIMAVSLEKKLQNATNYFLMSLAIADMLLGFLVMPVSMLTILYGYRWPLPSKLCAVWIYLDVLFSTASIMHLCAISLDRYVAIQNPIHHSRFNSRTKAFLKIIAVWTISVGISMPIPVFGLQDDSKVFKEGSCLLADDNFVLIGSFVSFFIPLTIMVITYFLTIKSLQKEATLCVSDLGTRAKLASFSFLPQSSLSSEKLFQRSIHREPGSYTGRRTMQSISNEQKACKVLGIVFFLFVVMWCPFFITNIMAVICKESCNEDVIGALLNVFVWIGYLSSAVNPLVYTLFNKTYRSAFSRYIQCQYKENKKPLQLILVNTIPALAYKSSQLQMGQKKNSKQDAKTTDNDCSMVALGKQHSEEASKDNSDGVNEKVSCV

Row | SMILES | time-dependent calcium flux (relative fluorescence, RFU) in response to serotonin with compound vs serotonin alone (5-HT2A receptor) | calcium response (relative Fluo-8 fluorescence) [1]
1 | CC(=O)NCCc1c[nH]c2c(C)ccc(O)c12 [compound (IV), N-[2-(4-hydroxy-7-methyl-1H-indol-3-yl)ethyl]acetamide] | elevated flux | 
2 | NCCc1c[nH]c2ccc(O)cc12 [serotonin, 5-hydroxytryptamine] |  | did not exhibit a response
